Results as given in ChEMBL document CHEMBL1145897, “Synthesis and biological evaluation of 2,4-diamino-6-(arylaminomethyl)pyrido[2,3-d]pyrimidines as inhibitors of Pneumocystis carinii and Toxoplasma gondii dihydrofolate reductase and as antiopportunistic infection and antitumor agents” (J Med Chem, 2003).

Experiments:
[1] = target: T1, Dihydrofolate reductase (Rattus norvegicus, UniProt Q920D2)
T1 sequence (Q920D2 whole entry): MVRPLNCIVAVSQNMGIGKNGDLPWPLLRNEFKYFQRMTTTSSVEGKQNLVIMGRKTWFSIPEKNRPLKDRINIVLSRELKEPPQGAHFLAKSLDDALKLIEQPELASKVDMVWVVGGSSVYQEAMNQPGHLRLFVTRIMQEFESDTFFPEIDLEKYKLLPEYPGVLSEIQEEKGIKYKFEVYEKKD
Description: Inhibition of dihydrofolate reductase from rat liver.

[2] = Ratio of inhibitory activity against dihydrofolate reductase of rat liver to pneumocystis carinii
[3] = Ratio of inhibitory activity against dihydrofolate reductase of rat liver to Toxoplasma gondii
[4] = test system: Toxoplasma gondii; assay: Inhibitory activity against cell growth of Toxoplasma gondii measured by the incorporation of [3H]uracil at 10 uM
[5] = test system: Toxoplasma gondii; assay: Inhibitory activity against cell growth of Toxoplasma gondii measured by the incorporation of [3H]uracil at <=10 uM
[6] = test system: K562; assay: […] cytotoxic evaluation against human leukemic K-562 cell line; assay type: functional
[7] = test system: HCT-116; assay: In vitro cytotoxic evaluation against colon cancer HCT116 cell line
[8] = test system: EKVX; assay: […] cytotoxic evaluation against human lung cancer EKVX cell line; assay type: functional
[9] = test system: HCC 2998; assay: […] cytotoxic evaluation against colon cancer HCC2998 cell line; assay type: functional, Homo sapiens
[10] = test system: LOX IMVI; assay: […] cytotoxic evaluation against melanoma LOX IMVI cell line; assay type: functional, Homo sapiens
[11] = test system: SF-295; assay: […] cytotoxic evaluation against CNS cancer SF-295 cell line; assay type: functional, Homo sapiens
[12] = test system: MDA-MB-435; assay: […] cytotoxic evaluation against breast cancer MDA-MB-435 cell line; assay type: functional, Homo sapiens
[13] = test system: COLO 205; assay: […] cytotoxic evaluation against colon cancer COLO 205 cell line; assay type: functional, Homo sapiens
[14] = test system: MDA-N; assay: […] cytotoxic evaluation against breast cancer MDA-N cell line; assay type: functional, Homo sapiens
[15] = test system: MOLT-4; assay: […] cytotoxic evaluation against human leukemic Molt-4 cell line; assay type: functional
[16] = test system: SK-MEL-5; assay: […] cytotoxic evaluation against melanoma SK-MEL-5 cell line; assay type: functional, Homo sapiens
[17] = test system: Pneumocystis carinii; assay: Inhibitory activity against cell growth of pneumocystis carinii measured by direct counting of organisms in the culture supernatant fluid at 10 uM
[18] = test system: Toxoplasma gondii; assay: Inhibitory activity against cell growth of Toxoplasma gondii measured by the incorporation of [3H]uracil at […]
[19] = test system: Pneumocystis carinii; assay: Inhibitory activity against cell growth of pneumocystis carinii measured by direct counting of organisms in the culture supernatant fluid at 50.7 uM
[20] = test system: Toxoplasma gondii; assay: Inhibitory activity against cell growth of Toxoplasma gondii measured by the incorporation of [3H]uracil at 7.8 uM

Question: For `COc1cccc(NCc2cnc3nc(N)nc(N)c3c2)c1`, which IC50 [1] is on record?
Answer: The IC50 was 790 nM.

Question: Which Ratio [2] does the source give for `COc1cc(NCc2cnc3nc(N)nc(N)c3c2C)cc(OC)c1OC` here?
Answer: The Ratio was 0.02.

Question: What about the Ratio [3] of the same compound?
Answer: Its Ratio is 0.3.

Question: With `COc1ccc(OC)c(NCc2cnc3nc(N)nc(N)c3c2)c1` as the compound, how does the IC50 [1] read?
Answer: The IC50 was 5000 nM.

Question: And the inhibition at 10 µM [4]?
Answer: The inhibition at 10 µM was less than 50%.

Question: For `CN(Cc1cnc2nc(N)nc(N)c2c1)c1ccc(Cl)c(Cl)c1`, which IC50 [1] is on record?
Answer: The IC50 was 180 nM.

Question: With `COc1ccc(NCc2cnc3nc(N)nc(N)c3c2)cc1OC` as the compound, how does the IC50 [1] read?
Answer: Its IC50 is 560 nM.

Question: With `Nc1nc(N)c2cc(CNc3ccccc3)cnc2n1` as the compound, how does the Inhibition [5] read?
Answer: Its Inhibition is 0%.

Question: With `Nc1nc(N)c2cc(CNc3ccc4ccccc4c3)cnc2n1` as the compound, how does the IC50 [1] read?
Answer: Its IC50 is 4900 nM.

Question: What about the GI50 [6] of the same compound?
Answer: The GI50 was 500 nM.

Question: And the GI50 [7]?
Answer: The GI50 was 1900 nM.

Question: And the GI50 [8]?
Answer: Its GI50 is 9000 nM.

Question: What about the GI50 [9] of the same compound?
Answer: Its GI50 is 1100 nM.

Question: And the GI50 [10]?
Answer: Its GI50 is 1600 nM.

Question: What about the GI50 [11] of the same compound?
Answer: Its GI50 is 8200 nM.

Question: What about the GI50 [12] of the same compound?
Answer: The GI50 was 10000 nM.

Question: And the GI50 [13]?
Answer: Its GI50 is 2400 nM.

Question: What about the GI50 [14] of the same compound?
Answer: Its GI50 is 4400 nM.

Question: What about the GI50 [15] of the same compound?
Answer: Its GI50 is 2000 nM.

Question: And the GI50 [16]?
Answer: The GI50 was 3200 nM.

Question: For `Nc1nc(N)c2cc(CNc3cc(Cl)c(Cl)c(Cl)c3)cnc2n1`, which IC50 [1] is on record?
Answer: Its IC50 is 4600 nM.

Question: And the GI50 [6]?
Answer: The GI50 was 350 nM.

Question: And the GI50 [7]?
Answer: The GI50 was 740 nM.

Question: What about the GI50 [8] of the same compound?
Answer: The GI50 was 850 nM.

Question: And the GI50 [9]?
Answer: Its GI50 is 780 nM.

Question: And the GI50 [10]?
Answer: The GI50 was 31 nM.

Question: What about the GI50 [11] of the same compound?
Answer: Its GI50 is 740 nM.

Question: And the GI50 [12]?
Answer: The GI50 was 570 nM.

Question: What about the GI50 [13] of the same compound?
Answer: The GI50 was 310 nM.

Question: What about the GI50 [14] of the same compound?
Answer: The GI50 was 500 nM.

Question: And the GI50 [15]?
Answer: Its GI50 is 710 nM.

Question: And the GI50 [16]?
Answer: Its GI50 is 350 nM.

Question: Which IC50 [1] does the source give for `CN(Cc1cnc2nc(N)nc(N)c2c1)c1ccccc1` here?
Answer: Its IC50 is 395000 nM.

Question: With `Nc1nc(N)c2cc(CNc3cc(Cl)ccc3Cl)cnc2n1` as the compound, how does the IC50 [1] read?
Answer: The IC50 was 6900 nM.

Question: And the GI50 [6]?
Answer: Its GI50 is 1600 nM.

Question: And the GI50 [7]?
Answer: Its GI50 is 2100 nM.

Question: What about the GI50 [8] of the same compound?
Answer: The GI50 was 6600 nM.

Question: And the inhibition at 10 µM [17]?
Answer: Its inhibition at 10 µM is 88%.

Question: And the GI50 [9]?
Answer: The GI50 was 3000 nM.

Question: And the GI50 [10]?
Answer: Its GI50 is 710 nM.

Question: What about the GI50 [11] of the same compound?
Answer: Its GI50 is 4000 nM.

Question: What about the GI50 [12] of the same compound?
Answer: Its GI50 is 2400 nM.

Question: What about the GI50 [13] of the same compound?
Answer: Its GI50 is 2300 nM.

Question: What about the inhibition at […] [18] of the same compound?
Answer: Its inhibition at […] is 50%.

Question: What about the GI50 [14] of the same compound?
Answer: Its GI50 is 3000 nM.

Question: What about the GI50 [15] of the same compound?
Answer: The GI50 was 2000 nM.

Question: What about the GI50 [16] of the same compound?
Answer: Its GI50 is 2200 nM.

Question: With `COc1cc(NCc2ccc3nc(N)nc(N)c3c2C)cc(OC)c1OC` as the compound, how does the Ratio [2] read?
Answer: Its Ratio is 0.07.

Question: And the Ratio [3]?
Answer: Its Ratio is 0.3.

Question: What does the source list for `Nc1nc(N)c2cc(CNc3cccc4ccccc34)cnc2n1`?
Answer: IC50 [1]: 600 nM; inhibition at 50.7 µM [19]: 50%; inhibition at 7.8 µM [20]: 50%

Question: Which IC50 [1] does the source give for `Nc1nc(N)c2cc(CNc3ccc(Cl)c(Cl)c3)cnc2n1` here?
Answer: Its IC50 is 480 nM.

Question: What about the GI50 [6] of the same compound?
Answer: Its GI50 is 330 nM.

Question: What about the GI50 [7] of the same compound?
Answer: The GI50 was 620 nM.

Question: And the GI50 [8]?
Answer: Its GI50 is 2400 nM.

Question: And the GI50 [9]?
Answer: Its GI50 is 2700 nM.

Question: What about the GI50 [10] of the same compound?
Answer: The GI50 was 820 nM.

Question: What about the GI50 [11] of the same compound?
Answer: The GI50 was 3800 nM.

Question: And the GI50 [12]?
Answer: Its GI50 is 1300 nM.

Question: And the GI50 [13]?
Answer: Its GI50 is 1700 nM.

Question: And the GI50 [14]?
Answer: The GI50 was 950 nM.

Question: And the GI50 [15]?
Answer: The GI50 was 1100 nM.

Question: What about the GI50 [16] of the same compound?
Answer: Its GI50 is 1100 nM.

Question: For `CN(Cc1cnc2nc(N)nc(N)c2c1)c1cc(Cl)c(Cl)c(Cl)c1`, which IC50 [1] is on record?
Answer: Its IC50 is 270 nM.

Question: Which Ratio [2] does the source give for `COc1ccc(OC)c(CN(C)c2cnc3nc(N)nc(N)c3c2)c1` here?
Answer: Its Ratio is 0.7.

Question: And the Ratio [3]?
Answer: The Ratio was 9.
